Measurements from ChEMBL document CHEMBL3259737, “Lead optimization studies of cinnamic amide EP2 antagonists” (J Med Chem, 2014).
In brackets after ≈: the same amount, converted by molar mass.

How the values were obtained:
physchem = conditions: PBS buffer, pH 7.4
C6 = assay: Cytotoxicity against rat C6 cells assessed as cell viability
[1] = Ratio of drug level in brain to plasma in C57BL/6 mouse at 10 mg/kg, po measured after 1 to 2 hrs
[2] = Metabolic stability in mouse liver microsomes assessed as compound remaining at 1 uM after 60 mins
[3] = Metabolic stability in mouse liver microsomes assessed as compound remaining at 10 uM after 60 mins
in vivo [4] = conditions: C57BL/6, mouse, po, 10 mg/kg
in vivo [5] = conditions: C57BL/6, mouse, ip, 5 mg/kg
[6] = Metabolic stability in human liver microsomes assessed as compound remaining at 1 uM after 60 mins
[7] = Ratio of drug level in brain to plasma in C57BL/6 mouse at 5 mg/kg, ip measured after 1 to 2 hrs
[8] = Metabolic stability in human liver microsomes assessed as compound remaining at 10 uM after 60 mins
[9] = Terminal half life in C57BL/6 mouse plasma at 3 mg/kg, ip; format: ADME, organism-based; parameters: dose 3 mg/kg, route intraperitoneal; conditions: read-out: beta t1/2 (converted)
[10] = Cmax in C57BL/6 mouse at 3 mg/kg, iv; format: ADME, organism-based; parameters: dose 3 mg/kg, route intravenous; conditions: in vivo
[11] = molecular target: Prostaglandin E2 receptor EP2 subtype (Homo sapiens) (UniProt P43116); assay: Competitive antagonist activity at human EP2 receptor expressed in rat C6 cells assessed as parallel rightward shift in PGE2 concentration response curve treated for 10 mins prior to PGE2 challenge for 40 mins by TR-FRET assay; format: cell-based
Prostaglandin E2 receptor EP2 subtype (Homo sapiens), sequence (P43116 whole entry): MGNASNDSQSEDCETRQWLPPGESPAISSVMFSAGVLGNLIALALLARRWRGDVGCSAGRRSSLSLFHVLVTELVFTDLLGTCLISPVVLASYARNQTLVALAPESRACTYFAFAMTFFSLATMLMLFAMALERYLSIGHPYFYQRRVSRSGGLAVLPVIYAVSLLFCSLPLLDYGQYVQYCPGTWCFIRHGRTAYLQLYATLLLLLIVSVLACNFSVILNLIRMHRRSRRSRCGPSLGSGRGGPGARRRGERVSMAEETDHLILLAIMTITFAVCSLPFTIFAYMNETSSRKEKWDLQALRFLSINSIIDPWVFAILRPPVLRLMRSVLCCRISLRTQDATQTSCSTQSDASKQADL

Row | SMILES | solubility kinetic (physchem) [µM] | CC50 (C6) [µM] | remaining at 1 h, 1 µM [2] [%] | remaining at 1 h, 10 µM [3] [%] | remaining at 1 h, 1 µM [6] [%] | also measured
1 | Cc1cc2ccccc2n1CCNC(=O)/C=C/c1ccc(OCCN(C)C)cc1 | 90 (≈ 35.2 µg/mL) | – | – | – | – | –
2 | COc1cc(/C=C/C(=O)NCCc2c(C)[nH]c3c(F)cc(F)cc23)cc(OC)c1OC | < 25 | – | – | – | – | –
3 | Cc1cc2ccccc2n1CCNC(=O)/C=C/c1ccc(OCCO)cc1 | 68 (≈ 24.8 µg/mL) | 81.7 | – | – | – | –
4 | COc1cc(/C=C/C(=O)NCCn2c(CNC3CCN(C)CC3)cc3ccccc32)cc(OC)c1OC | 180 (≈ 91.2 µg/mL) | – | – | – | – | –
5 | Cc1cc2ccccc2n1CCNC(=O)/C=C/c1ccc(OCCO)c(OCCO)c1 | 153 (≈ 64.9 µg/mL) | 92.3 | 1.7 | 8.7 | 16.2 | Kp [1]: < 0.1; Cmax (in vivo [4]): 128 ng/mL; Cmax (in vivo [5]): 1510 ng/mL; Kp [7]: < 0.1
6 | COc1ccc(/C=C/C(=O)NCCc2c(C)[nH]c3ccccc23)cc1OC | 41 (≈ 14.9 µg/mL) | 246 | 0.2 | 0.1 | 12.4 | remaining at 1 h, 10 µM [8]: 18.6%
7 | COc1cc(/C=C/C(=O)NCCn2c(C(F)(F)F)cc3ccccc32)cc(OC)c1OCCO | 35 (≈ 16.7 µg/mL) | 31.2 | – | – | – | –
8 | Cc1cc(/C=C/C(=O)NCCn2c(C)cc3ccccc32)cc(C)c1F | < 25 | 368 | 18.3 | 13 | 20.9 | half-life [9]: 34.8 min; remaining at 1 h, 10 µM [8]: 24%
9 | O=C(/C=C/c1ccc(OCCO)c(OCCO)c1)NCCn1c(C(F)(F)F)cc2ccccc21 | 67 (≈ 32.1 µg/mL) | – | – | – | – | –
10 | COc1cc(/C=C/C(=O)NCCn2c(C)cc3ccccc32)cc(OC)c1OC | 45 (≈ 17.8 µg/mL) | 172 | 0.2 | 4.8 | 0.1 | Cmax [10]: 2400 ng/mL; remaining at 1 h, 10 µM [8]: 10.6%
11 | Cc1cc(/C=C/C(=O)NCCc2c(C)[nH]c3ccccc23)cc(C)c1F | < 25 | 317 | 0.1 | 51.7 | 0.4 | remaining at 1 h, 10 µM [8]: 21.4%
12 | Cc1[nH]c2ccccc2c1CCNC(=O)/C=C/c1ccc(OCCO)c(OCCO)c1 | 235 (≈ 99.8 µg/mL) | 126 | 7.1 | 19.3 | 58.5 | remaining at 1 h, 10 µM [8]: 70.4%
13 | COc1cc(/C=C/C(=O)NCCn2c(C)c(CN(C)C)c3ccccc32)cc(OC)c1OC | 110 (≈ 49.7 µg/mL) | – | – | – | – | –
14 | COc1cc(/C=C/C(=O)NCCn2c(CN3CCOCC3)cc3ccccc32)cc(OC)c1OC | 91 (≈ 43.6 µg/mL) | – | – | – | – | –
15 | COc1cc(/C=C/C(=O)NCCn2c(C)cc3ccccc32)cc(OC)c1 | < 25 | – | – | – | – | –
16 | COc1cc(/C=C/C(=O)NCCc2c(C)[nH]c3ccccc23)cc(OC)c1OC | 43 (≈ 17 µg/mL) | 59.5 | 0 | 0.2 | 0.8 | remaining at 1 h, 10 µM [8]: 5.8%
17 | COc1cc(/C=C/C(=O)NCCn2c(C)c(CN3CCCCC3)c3ccccc32)cc(OC)c1OC | 75 (≈ 36.9 µg/mL) | – | – | – | – | –
18 | COc1cc(/C=C/C(=O)NCCn2c(C)cc3ccccc32)cc(OC)c1OCCN(C)C | 180 (≈ 81.3 µg/mL) | – | – | – | – | –
19 | COc1cc(/C=C/C(=O)NCCn2c(C)cc3ccccc32)cc(OC)c1OCCO | 66 (≈ 28 µg/mL) | 43.3 | – | – | – | Kb [11]: 0.0067 µM; inhibition [11]: Dose-dependent effect
20 | Cc1cc2ccccc2n1CCNC(=O)/C=C/c1ccc(OCCCO)cc1 | 66 (≈ 25 µg/mL) | 36.6 | – | – | – | –
21 | Cc1cc2ccccc2n1CCNC(=O)/C=C/c1ccc(OCCCN(C)C)cc1 | 306 (≈ 124 µg/mL) | – | – | – | – | –
22 | COc1cc(/C=C/C(=O)NCCc2n[nH]c3ccccc23)cc(OC)c1OC | 152 (≈ 58 µg/mL) | – | – | – | – | –
